These are literature values, as cited in patent US20210121517A1, “STABLE PARENTERAL DOSAGE FORM OF CETRORELIX ACETATE” (Sun Pharmaceutical Industries Limited, priority 2019, published 2021).

For this series the following is noted: 2.5 mg/ml.

Read-outs that look alike come from different tables or passages of the source.

Turning to “acetyl-D-3-(2′-naphtyl)-alanine-D-4-chlorophenylalanine-D-3-(3′-pyridyl)-alanine-L-serine-L-tyrosine-D-citruline-L-leucine-L-arginine-L-proline-D-alanine-amide [Cetrorelix acetate]”, the “time until aggregation was seen” value is, setting by setting: (gluconic acid 0.71%, pH 3.1) 12 days; (gluconic acid less than 0.07%, pH 3.7) no more than 2 days.
